Measurements taken from PMC9098866, “Signal transduction in light-oxygen-voltage receptors lacking the active-site glutamine” (Nature Communications, 2022).

How the values were obtained:
[1] = biological target: T1, A. sativa phototropin 1 LOV2 (AsLOV2) (Avena sativa, UniProt O49003, Q513L); experiment: X-ray crystal structure; assay type: binding; conditions: dark-adapted 0.90 A (7PGZ) and blue-light freeze-trapped 0.98 A (7PH0); light: thioadduct with C450 (covalent, modelled noncovalent); sodium acetate pH 4.6-5.0
T1 construct: gene NPH1-1; LOV2 domain residues 404-546 with flanking A'alpha and Jalpha helices; E. coli expression; N-terminal His6-SUMO tag cut by Senp2, leaving N-terminal GEF extension

[2] = biological target: T2, A. sativa phototropin 1 LOV2 (AsLOV2) (Avena sativa, UniProt O49003); experiment: X-ray crystal structure; assay type: binding; conditions: dark-adapted 1.00 A (7PGX) and blue-light freeze-trapped 1.09 A (7PGY); light: thioadduct with C450 (covalent, not seen in density, modelled noncovalent); sodium acetate pH 4.6-5.0
T2 construct: gene NPH1-1; LOV2 domain residues 404-546 with flanking A'alpha and Jalpha helices; E. coli expression; N-terminal His6-SUMO tag cut by Senp2, leaving N-terminal GEF extension
T2 sequence (O49003 entry or part of it): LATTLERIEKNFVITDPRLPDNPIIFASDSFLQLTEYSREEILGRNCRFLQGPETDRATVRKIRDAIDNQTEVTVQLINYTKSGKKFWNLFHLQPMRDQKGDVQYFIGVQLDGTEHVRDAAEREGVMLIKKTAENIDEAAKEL

T1 sequence (O49003 entry or part of it Q513L): as the sequence (O49003 entry or part of it) above, with Q110L counted along it

Cc1cc2nc3c(=O)[nH]c(=O)nc-3n(C[C@H](O)[C@H](O)[C@H](O)COP(=O)(O)O)c2cc1C [flavin mononucleotide]
X-ray crystal structure [1]: the cofactors were generally modeled as noncovalently bound oxidized flavin mononucleotides
X-ray crystal structure [2]: 7pgx (wild-type, dark), 7pgy (wild-type, light), 7pgz (Q513L, dark), and 7ph0 (Q513L, light)
